In paper PMC2999418, “Biological Activity and Binding Site Characteristics of the PA1b Entomotoxin on Insects from Different Orders” (Journal of Insect Science, 2007):

Legend:
[1] = system: gut extracts from M. brassicae; assay type: in vitro ADME, Mamestra brassicae; settings: 400 µg M. brassicae gut proteins per assay, 10 µg PA1b, pH 3 to 9, 30°C, one night incubation; C18 HPLC; data not shown
Method: (§1) PA1b degradation assays were performed using 10 µg of peptide (PA1b isoform mixture) in a final volume of 100 µl buffer. Assays with commercially (SIGMA, www.sigmaaldrich.com) available enzymes were performed in Glycine-NaOH buffer (20 mM pH 9) at 3O°C for proteinase K (E.C. 3.4.21.64), Tris-HCl buffer (20 mM pH 7.5) + EDTA 10 mM at 37°C for pronase E type XIV, MES-NaOH buffer (20 mM pH 6.2) at 25°C for papain (E.C. 3.4.22.2), Tris-HCl buffer (20 mM pH 7.8) at 25°C for chymotrypsin (E.C. 3.4.21.1), and Tris-HCl buffer (20 mM pH 7.6) at 25°C for trypsin (E.C. 3.4.21.4). Assays were done with 10 µg of each enzyme, and control assays were performed with 10 µg of enzymes denaturated by 10 min boiling. Assays with insect extracts were carried out in 20 mM buffers from pH 3 to 9 (Glycine-HCl, pH 3; sodium acetate pH 4-5; MES-NaOH pH 6; Tris-HCl pH 7-8; Glycine NaOH pH 9) at 3O°C. […]
For all assays, after a one night incubation, 150 µl of methanol were added to the mixture and incubated for 60 min at 4°C. […] PA1b peptide isoforms were detected by their absorbance at 210 nm, quantified by the measurement of the peak area and with reference to known quantities of pure peptide isoform used as standards. […]

[2] = molecular target: PA1b binding protein on membrane extracts; test: 125I-PA1b binding (competition) on insect membrane extracts; set-up: species or system Trichogramma pretiosum; settings: T. pretiosum membrane extracts; competition with purified 3741 isoform
Method: (§2) The isolation of membrane proteins for binding studies was performed as described by Gressent et al. ([2003]). For PA1b degradation tests, insect extracts were prepared as follows, 1 g of insects were ground with a mortar and pestle in liquid nitrogen. The resulting powder was resuspended in 2 ml of extraction buffer (20 mM Tris-HCl pH 8; 0.25 M sucrose; 2 mM MgCl2). The slurry was centrifuged for 2 min at 1000 g, and the supernatant was stored at -2O°C until required. All the operations were performed at 4°C.
(§3) The peptidic toxin PA1b-3471 isoform was labelled with I^125 to a specific radioactivity of about 900 Ci.mmor^-1, and then used for binding studies with membrane extracts, according to Gressent et al. ([2003]).
(§4) PA1b binding activity was present in all insect species, except for the resistant weevil strains and the pea specific pest Bruchus pisorum, regardless of the sensitivity or insensitivity of these insects to PA1b toxicity, as evaluated from our insect bioassays. […] The relative abundance of the binding sites was also slightly different in this group of species, varying from 10 pmol/mg of protein for T. pretiosum to a maximum of 79 pmol/mg of protein for M. persicae.

[3] = molecular target: PA1b binding protein on membrane extracts; test: as above; set-up: species or system Myzus persicae; settings: M. persicae membrane extracts; competition with purified 3741 isoform
Method: as §2, §3, §4

[4] = system: pronase E type XIV; test: PA1b degradation assay with commercial protease; assay type: in vitro ADME; settings: 10 µg pronase E, 37°C, one night incubation, C18 HPLC
Method: as §1
(§5) For all assays, after a one night incubation, 150 µl of methanol were added to the mixture and incubated for 60 min at 4°C. […] PA1b peptide isoforms were detected by their absorbance at 210 nm, quantified by the measurement of the peak area and with reference to known quantities of pure peptide isoform used as standards.

[5] = molecular target: PA1b binding protein on membrane extracts; test: 125I-PA1b binding (competition) on insect membrane extracts; set-up: species or system Harmonia axyridis; settings: H. axyridis membrane extracts; competition with purified 3741 isoform
Method: as §2, §3, §4

[6] = molecular target: PA1b binding protein on membrane extracts; test: as above; set-up: species or system Drosophila melanogaster; settings: D. melanogaster membrane extracts; competition with purified 3741 isoform
Method: as §2, §3, §4

[7] = system: D. melanogaster protein extracts; test: PA1b degradation assay with total insect protein extract; assay type: in vitro ADME, Drosophila melanogaster; settings: 200 µg D. melanogaster (L3) total protein extract, 10 µg PA1b, pH 3 to 9, 30°C, one night incubation; C18 HPLC; data not shown
Method: as §2
PA1b degradation assays were performed using 10 µg of peptide (PA1b isoform mixture) in a final volume of 100 µl buffer. […]
as §5

[8] = system: Sitophilus oryzae; settings: three natural S. oryzae strains able to feed on pea seeds; ref Grenier et al. 1997; cited from earlier work
Description: S. oryzae strains resistant to PA1b exist naturally.

[9] = system: Myzus persicae; test: Aphid growth and toxicity assay on artificial diet with toxin; assay type: in vivo; settings: doses up to 1000 µg.ml^-1 in artificial diet
Method: (§6) Growth and toxicity assays were carried out on the aphids Aphis gossypii, Myzus persicae and Acyrthosiphon pisum, Hemiptera, according to Rahbé and Febvay ([1993]). Larvae of the fruit fly Drosophila melanogaster, Diptera, were provided by Dr. Allemand (UMR 5558 CNRS-UCBL, Lyon, France).
(§7) All toxicity assays were carried out using a mixture of PA1b isoforms (98% purity by HPLC). All tests were performed on at least 30 insects for assays and for control test (without toxin), except for the three aphid species (50 insects) and for Trichogramma (more than 300 eggs by assays). When adults were used, the insects were synchronized at the imaginal molt. The statistical analyses were performed using the JMP software (SAS, Grégy-sur-Yerres FRA).
(§8) Figure 2. Effects of PA1b on three aphid species. Tests were carried out with artificial diet supplemented with the toxin at increasing concentrations, and mortality of the insects was monitored daily (relative larval survival is used in the graph). Circle : A. pisum; Square : M. persicae; Triangle : A. gossypii.

[10] = system: Acyrthosiphon pisum; test: as above; assay type: in vivo; settings: after six days feeding
Method: as §6, §7, §8

[11] = system: Aphis gossypii; test: as above; assay type: in vivo; settings: 1000 µg.ml^-1 in artificial diet
Method: as §6, §7, §8

[12] = system: Culex pipiens; test: Mosquito larval bioassay, toxin added to water; assay type: in vivo; settings: 250 µg.ml^-1 of water
Method: The mosquito bioassay was performed on larvae of Culex pipiens (Diptera) in water. The toxin was added directly to the water, and the mortality of L3 larvae was recorded daily.
as §7

**Q.** What does the source list for “ASCNGVCSPFEMPPCGTSACRCIPVGLVIGYCR NPSG (bicyclic or more) [PA1b, plant peptide of 37 amino acids purified from pea (Pisum sativum) seeds; entomotoxic cystine-knot peptide with three disulfide bonds]”?
**A.** recovery of PA1b after incubation with native or heat inactivated gut proteins [1]: no difference; Kd [2]: 0.056 µM; Kd [3]: 0.062 µM; PA1b recovered after pronase E treatment, relative to control ([4]; 10 µg PA1b, Tris-HCl pH 7.5 + EDTA 10 mM): 20 % of the control; Recovered PA1b, Assays ([4]; 10 µg PA1b isoform mixture in 100 µl Tris-HCl 20 mM pH 7.5 + EDTA 10 mM, UV 210 nm, mean of triplicates): 1.7 µg; Kd [5]: 0.052 µM; Kd [6]: 0.016 µM; recovered PA1b after incubation with insect proteins versus heat-denatured control [7]: without any difference between control and test assays; resistance of pea-feeding S. oryzae strains to the purified toxin [8]: fully resistant; mortality [9]: no mortality; mortality ([10]; 150 µg.ml^-1 in artificial diet): 57%; mortality ([10]; 500 µgml^-1 in artificial diet): total; lethality [11]: 37%; survival of L3 larvae ([12]; after one day): 100%; survival of L3 larvae ([12]; after two days): 0%
